Assay results as given in article PMC12491518, “Fabrication of cytotoxic mirror image nanopores” (Nature Communications, 2025).
Where a SMILES comes first, the peptide text is derived from it. [ ]: non-standard residue; d: D form.

How the values were obtained:
[1] = system: MDA-MB-231 cells; experiment: Cell membrane integrity by CellMask Deep Red staining; assay type: cell-based, human; conditions: 25 µM, 24 h
Protocol: MDA-MB-231 cells were seeded in a 24-well plate (Thermo Fisher Scientific, 142475) containing sterilized coverslips (Blue star, Microscopic cover glass circular 12 mm 10 gm) at a cell density of 3 × 10^4 cells per well. 24 h post-seeding, cells were treated with DpPorA DE peptide, 5-FAM-DpPorA DE peptide, or a corresponding concentration of DDM. After 24 h of treatment, cells were stained with CellMask Deep Red (Thermo Fisher Scientific, C10046; 1:4000 dilution in PBS) for 5 min at 37 °C. After membrane staining, the cells were washed with PBS and fixed in 2% PFA (Himedia, TCL119) for 5 min. After PBS wash, the coverslips were carefully removed from the wells and mounted with ProLong™ Gold Antifade Mountant (Invitrogen, P10144). The cells were immediately visualized within 60 min using the Carl Zeiss Axio Observer fluorescence microscope. Fluorescence was quantified by drawing the ROI around individual cells to measure the green channel intensity (5-FAM-DpPorA DE). Integrated Density was measured using ImageJ software for 50 cells per group. […]
g) Preparation of DDM and peptides for testing on cancer cells
Lyophilized DpPorA, LpPorA, DpPorA DE, LpPorA DE and 5-FAM-DpPorA DE were reconstituted in 0.1% DDM [1 µL of 100 µg mL-1 DDM (Sigma-Aldrich Merck, D5172) in PBS (Gibco - 14040)], resulting in a peptide concentration of 1.7 mM. Subsequent concentrations were diluted with DMEM, 10% FBS, and 1% Penicillin /Streptomycin-containing media. (Supplementary Table 2) h) Cell membrane integrity analysis and statistics
(§1) Immunofluorescence (IF) images were analyzed to assess the impact of different treatments on cell membrane integrity. Cells were categorized into Intact and Disrupted groups based on membrane integrity observed by CellMask cell membrane staining. We evaluated a t least 100 cells for each group - Control, DDM-treated cells and peptide-treated cells- with independent analysis done by a student blinded to the groups' identity . […]
indicating a loss of cell membrane integrity. This categorization provided a clear and systematic approach to quantify the effects of various treatments on cell membrane integrity.
For three independent experiments, data in bar graphs represent mean (± standard deviation) fold change relative to Control groups. Differences between the two datasets were assessed using Welch’s test. Statistical significance is indicated as: *p<0.05, **p<0.01, ***p<0.001,

[2] = system: MDA-MB-231 cells; assay type: cell-based, human; conditions: 10 µM and 20 µM, 24 h, MTT, n = 3
Protocol: The MDA-MB-231 cell line was obtained from ATCC (Kind gift from Dr. Annapoorni Rangarajan, Indian Institute of Science, Bengaluru, Karnataka, India) and tested negative for mycoplasma contamination. Cells were cultured in DMEM (Gibco, 11965-092) supplemented with 10% FBS (Thermo Fisher Scientific, 10270-106) and Penicillin (100 Units/mL) /Streptomycin (100 µg/mL) (Thermo Fisher Scientific, 15070-063). […] Cell proliferation was measured 24 h after the addition of Peptide/ DDM using MTT assay (3-(4,5-dimethylthiazol-2-yl)-2,5-diphenyltetrazolium bromide, M6494, Thermo Fischer Scientific). […] The purple-colored formazan crystals were dissolved by adding 100 µL DMSO (D5879, Sigma Aldrich), and the absorbance at 570 nm was measured using a plate reader (EMax plus microplate reader). […]
as §1, with “Cells were categorized into Intact and Disrupted groups based on membrane integrity observed by CellMask cell membrane staining.” left out
indicating a loss of cell membrane integrity. This categorization provided a clear and systematic approach to quantify the effects of various treatments on cell membrane integrity. […]

Row | SMILES | Cell number, Disrupted phenotype [1] | Cell number, Intact phenotype [1] | cells with Disrupted membrane phenotype ([1]; at least 100 cells) | cells with Intact membrane phenotype ([1]; at least 100 cells) | change in cell viability [2]
1 | CC[C@@H](C)[C@@H](NC(=O)[C@H](N)CCSC)C(=O)N[C@H](CC(=O)O)C(=O)N[C@H](CCC(N)=O)C(=O)N[C@@H](C(=O)N[C@@H](C(=O)N[C@H](CCC(=O)O)C(=O)N[C@@H](C(=O)N[C@H](Cc1ccccc1)C(=O)NCC(=O)N[C@H](CCC(N)=O)C(=O)N[C@H](CC(C)C)C(=O)NCC(=O)N[C@@H](C(=O)N[C@H](Cc1ccccc1)C(=O)N[C@H](CC(C)C)C(=O)NCC(=O)NCC(=O)N[C@H](Cc1ccccc1)C(=O)NCC(=O)N[C@H](CC(N)=O)C(=O)N[C@@H](C(=O)N[C@H](Cc1ccccc1)C(=O)N[C@H](CCCCN)C(=O)NCC(=O)N[C@H](CC(C)C)C(=O)N[C@H](CCCCN)C(=O)N[C@H](C)C(=O)N[C@@H](C(=O)N[C@@H](C(=O)N[C@H](C)C(=O)N[C@@H](C(=O)N[C@@H](C(=O)N[C@@H](C(=O)N[C@H](CCCCN)C(=O)N[C@H](Cc1c[nH]c2ccccc12)C(=O)N[C@@H](C(=O)N[C@H](C)C(=O)N[C@H](C)C(=O)N[C@H](CCCCN)C(=O)O)[C@H](C)O)C(C)C)[C@H](C)CC)[C@H](C)O)[C@H](C)CC)C(C)C)[C@H](C)CC)[C@H](C)O)[C@H](C)CC)[C@H](C)O)[C@H](C)CC [DpPorA DE] (H-[dM][dI][dD][dQ][dI][dT][dE][dI][dF]G[dQ][dL]G[dT][dF][dL]GG[dF]G[dN][dI][dF][dK]G[dL][dK][dA][dV][dI][dA][dT][dI][dV][dK][dW][dT][dA][dA][dK]-OH; N-terminus and C-terminus assumed) | 158 | 1 | 99.37% | 0.63% | 
2 | CC[C@@H](C)[C@@H](NC(=O)[C@H](N)CCSC)C(=O)N[C@H](CC(=O)O)C(=O)N[C@H](CCC(N)=O)C(=O)N[C@@H](C(=O)N[C@@H](C(=O)N[C@H](CCC(=O)O)C(=O)N[C@@H](C(=O)N[C@H](Cc1ccccc1)C(=O)NCC(=O)N[C@H](CCC(N)=O)C(=O)N[C@H](CC(C)C)C(=O)NCC(=O)N[C@@H](C(=O)N[C@H](Cc1ccccc1)C(=O)N[C@H](CC(C)C)C(=O)NCC(=O)NCC(=O)N[C@H](Cc1ccccc1)C(=O)NCC(=O)N[C@H](CC(N)=O)C(=O)N[C@@H](C(=O)N[C@H](Cc1ccccc1)C(=O)N[C@H](CCCCN)C(=O)NCC(=O)N[C@H](CC(C)C)C(=O)N[C@H](CCCCN)C(=O)N[C@H](CC(=O)O)C(=O)N[C@@H](C(=O)N[C@@H](C(=O)N[C@H](CCC(=O)O)C(=O)N[C@@H](C(=O)N[C@@H](C(=O)N[C@@H](C(=O)N[C@H](CCCCN)C(=O)N[C@H](Cc1c[nH]c2ccccc12)C(=O)N[C@@H](C(=O)N[C@H](C)C(=O)N[C@H](C)C(=O)N[C@H](CCCCN)C(=O)O)[C@H](C)O)C(C)C)[C@H](C)CC)[C@H](C)O)[C@H](C)CC)C(C)C)[C@H](C)CC)[C@H](C)O)[C@H](C)CC)[C@H](C)O)[C@H](C)CC [DpPorA] (H-[dM][dI][dD][dQ][dI][dT][dE][dI][dF]G[dQ][dL]G[dT][dF][dL]GG[dF]G[dN][dI][dF][dK]G[dL][dK][dD][dV][dI][dE][dT][dI][dV][dK][dW][dT][dA][dA][dK]-OH; N-terminus and C-terminus assumed) |  |  |  |  | no significant change in viability
